This test has as its target Bifunctional dihydrofolate reductase-thymidylate synthase (Plasmodium falciparum K1, UniProt P13922). The test can be described thus: TBD: TBD. Further details: species or system Isolate K1 / Thailand.

Chain of Bifunctional dihydrofolate reductase-thymidylate synthase (P13922 whole entry): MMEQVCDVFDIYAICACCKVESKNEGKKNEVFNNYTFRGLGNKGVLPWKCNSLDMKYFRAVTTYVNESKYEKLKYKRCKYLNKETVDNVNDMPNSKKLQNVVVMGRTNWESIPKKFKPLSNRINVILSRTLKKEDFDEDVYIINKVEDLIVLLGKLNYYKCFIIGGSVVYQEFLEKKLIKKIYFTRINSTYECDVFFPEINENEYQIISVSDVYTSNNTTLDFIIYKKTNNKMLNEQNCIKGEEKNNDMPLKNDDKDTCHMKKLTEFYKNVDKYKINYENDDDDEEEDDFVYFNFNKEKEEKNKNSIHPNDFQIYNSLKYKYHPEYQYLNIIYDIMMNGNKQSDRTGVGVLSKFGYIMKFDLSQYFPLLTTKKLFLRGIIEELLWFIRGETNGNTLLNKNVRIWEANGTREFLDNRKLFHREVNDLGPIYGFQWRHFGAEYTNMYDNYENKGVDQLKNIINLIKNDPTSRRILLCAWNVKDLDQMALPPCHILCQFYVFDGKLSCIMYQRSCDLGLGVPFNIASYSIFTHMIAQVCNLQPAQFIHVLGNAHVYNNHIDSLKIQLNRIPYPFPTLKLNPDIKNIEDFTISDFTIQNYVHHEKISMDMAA

What is called IC50 is the concentration needed to halve the response being measured. The low end stands for greater potency in that assay, the high end for weaker potency in that assay. Consider `Nc1ncc(N2CCN(c3cccc(C4CCOCC4)c3)CC2)c(N)n1`, for which it took 1.1 nM to reach half-maximal inhibition (IC50).

The values are drawn from ChEMBL document CHEMBL5729483, “Compositions and methods for treating infections” (2022).
